Values quoted from earlier work in patent US20130029422A1, “Composite Substrate for 3D Cell Culture” (priority 2011, published 2013).

Conditions: during culture of breast cancer cells

estrogen
extraction from cell culture medium by PDMS-based cell culture articles: extract estrogen from cell culture medium
